Inconclusive results and toxic doses are left out. Cut-off read from the data, not from the text of the source: active = T/C of 150% or more; inactive = T/C below 125%.
Tested on: L1210 leukemia ip in BDF1 mice, survival T/C
Assay: NCI In Vivo Anticancer Drug Screen. Data for tumor model L1210 Leukemia (intraperitoneal) in B6D2F1 (BDF1) mice
Conditions: endpoint: mean survival time, higher = longer survival
In short: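 Mice bearing the transplanted tumor received compound or vehicle. Survival of the treated group was divided by that of the vehicle-treated control group to give the ratio.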

[1] = dose: 50.0 mg/kg/injection, schedule: Q01DX009 (ip), vehicle: saline with Tween-80
[2] = dose: 100.0 mg/kg/injection, schedule: Q01DX009 (ip), vehicle: Klucel (hydroxypropylcellulose) (HPC)
[3] = dose: 200.0 mg/kg/injection, schedule: Q01DX009 (ip), vehicle: Klucel (hydroxypropylcellulose) (HPC)
[4] = dose: 400.0 mg/kg/injection, schedule: Q01DX009 (ip), vehicle: Klucel (hydroxypropylcellulose) (HPC)
[5] = dose: 100.0 mg/kg/injection, schedule: Q04DX002 (ip), vehicle: saline with Tween-80
[6] = dose: 200.0 mg/kg/injection, schedule: Q04DX002 (ip), vehicle: saline with Tween-80
[7] = dose: 400.0 mg/kg/injection, schedule: Q04DX002 (ip), vehicle: saline with Tween-80
[8] = dose: 100.0 mg/kg/injection, schedule: Q01DX001 (ip), vehicle: carboxymethylcellulose (CMC)
[9] = dose: 200.0 mg/kg/injection, schedule: Q01DX001 (ip), vehicle: carboxymethylcellulose (CMC)
[10] = dose: 400.0 mg/kg/injection, schedule: Q01DX001 (ip), vehicle: carboxymethylcellulose (CMC)
[11] = dose: 100.0 mg/kg/injection, schedule: Q04DX003 (ip), vehicle: Klucel (hydroxypropylcellulose) (HPC)
[12] = dose: 200.0 mg/kg/injection, schedule: Q04DX003 (ip), vehicle: Klucel (hydroxypropylcellulose) (HPC)
[13] = dose: 400.0 mg/kg/injection, schedule: Q04DX003 (ip), vehicle: Klucel (hydroxypropylcellulose) (HPC)
[14] = dose: 100.0 mg/kg/injection, schedule: Q01DX001 (ip), vehicle: saline
[15] = dose: 200.0 mg/kg/injection, schedule: Q01DX001 (ip), vehicle: saline
[16] = dose: 400.0 mg/kg/injection, schedule: Q01DX001 (ip), vehicle: saline

Measured: T/C

CC1CCC2(NC1)OC1CC3C4CCC5CC(OC6OC(CO)C(OC7OC(CO)C(O)C(OC8OCC(O)C(O)C8O)C7OC7OC(CO)C(O)C(O)C7O)C(O)C6O)CCC5(C)C4CCC3(C)C1C2C (configuration not stated)
inactive: dose: 12.5 mg/kg/injection, schedule: Q01DX009 (ip), vehicle: saline with Tween-80 93 % of control | dose: 25.0 mg/kg/injection, schedule: Q01DX009 (ip), vehicle: saline with Tween-80 90 % of control | [1] 94 % of control | dose: 100.0 mg/kg/injection, schedule: Q01DX001 (sc), vehicle: steriod suspending solution 95 % of control | dose: 200.0 mg/kg/injection, schedule: Q01DX001 (sc), vehicle: steriod suspending solution 103 % of control | dose: 400.0 mg/kg/injection, schedule: Q01DX001 (sc), vehicle: steriod suspending solution 97 % of control

O=c1scc(-c2ccccc2)s1
inactive: dose: 100.0 mg/kg/injection, schedule: Q04DX002 (ip), vehicle: Klucel (hydroxypropylcellulose) (HPC) 113 % of control | dose: 200.0 mg/kg/injection, schedule: Q04DX002 (ip), vehicle: Klucel (hydroxypropylcellulose) (HPC) 88 % of control | dose: 400.0 mg/kg/injection, schedule: Q04DX002 (ip), vehicle: Klucel (hydroxypropylcellulose) (HPC) 106 % of control

S=C(NCc1ccncc1)Nc1ccccc1Cl
inactive: [2] 101 % of control | [3] 95 % of control | [4] 98 % of control

C/C(=N\N=C(/C)c1ccc([N+](=O)[O-])cc1)c1ccc([N+](=O)[O-])cc1
inactive: [5] 98 % of control | [6] 103 % of control | [7] 103 % of control

CSc1ncc(CO)c(N)n1
inactive: dose: 50.0 mg/kg/injection, schedule: Q01DX001 (ip), vehicle: carboxymethylcellulose (CMC) 111 % of control | [8] 98 % of control | [9] 102 % of control | [10] 111 % of control

CCOc1ccccc1NC(=O)c1cccc(F)c1
inactive: dose: 100.0 mg/kg/injection, schedule: Q01DX009 (ip), vehicle: saline with Tween-80 101 % of control | dose: 200.0 mg/kg/injection, schedule: Q01DX009 (ip), vehicle: saline with Tween-80 104 % of control | dose: 400.0 mg/kg/injection, schedule: Q01DX009 (ip), vehicle: saline with Tween-80 101 % of control

CC(=O)Nc1ccc2ccc3ccccc3c2c1
inactive: [2] 94 % of control | [11] 98 % of control | [3] 95 % of control | [12] 98 % of control | [4] 92 % of control | [13] 94 % of control

CCOC(=O)CNCc1ccc(C)cc1
inactive: dose: 100.0 mg/kg/injection, schedule: Q01DX009 (ip), vehicle: water 102 % of control | dose: 100.0 mg/kg/injection, schedule: Q04DX003 (ip), vehicle: water 93 % of control | dose: 200.0 mg/kg/injection, schedule: Q01DX009 (ip), vehicle: water 111 % of control | dose: 200.0 mg/kg/injection, schedule: Q04DX003 (ip), vehicle: water 93 % of control | dose: 400.0 mg/kg/injection, schedule: Q01DX009 (ip), vehicle: water 105 % of control | dose: 400.0 mg/kg/injection, schedule: Q04DX003 (ip), vehicle: water 97 % of control

O=P(NO)(c1ccccc1)c1ccccc1
inactive: [8] 92 % of control | [9] 95 % of control | [10] 95 % of control

Nc1cnc(N)nc1
inactive: dose: 75.0 mg/kg/injection, schedule: Q01DX Z (ip), vehicle: saline 103 % of control | dose: 150.0 mg/kg/injection, schedule: Q01DX Z (ip), vehicle: saline 111 % of control

O=C(Nc1cccc2cnccc12)c1ccc(C(=O)Nc2cccc3cnccc23)cc1
inactive: [14] 98 % of control | [15] 104 % of control | [16] 104 % of control

Cc1ccc(NC(=O)NCC2(C)CC(NC(=O)Nc3ccc(C)cc3)CC(C)(C)C2)cc1 (configuration not stated)
inactive: [1] 87 % of control | dose: 100.0 mg/kg/injection, schedule: Q04DX003 (ip), vehicle: saline with Tween-80 91 % of control | dose: 200.0 mg/kg/injection, schedule: Q04DX003 (ip), vehicle: saline with Tween-80 91 % of control

O=C(O)C(O)Cc1ccc(O)cc1 (configuration not stated)
inactive: [14] 90 % of control | [15] 92 % of control | [16] 97 % of control

CCCSCSCCC
inactive: [14] 105 % of control | dose: 100.0 mg/kg/injection, schedule: Q01DX009 (ip), vehicle: saline 105 % of control | dose: 100.0 mg/kg/injection, schedule: Q04DX003 (ip), vehicle: saline 98 % of control | [15] 98 % of control | dose: 200.0 mg/kg/injection, schedule: Q01DX009 (ip), vehicle: saline 97 % of control | dose: 200.0 mg/kg/injection, schedule: Q04DX003 (ip), vehicle: saline 104 % of control | [16] 98 % of control | dose: 400.0 mg/kg/injection, schedule: Q01DX009 (ip), vehicle: saline 100 % of control | dose: 400.0 mg/kg/injection, schedule: Q04DX003 (ip), vehicle: saline 97 % of control

CON(C)C(=O)N1c2ccccc2Sc2ccccc21
inactive: dose: 25.0 mg/kg/injection, schedule: Q04DX002 (ip), vehicle: saline with Tween-80 88 % of control | dose: 50.0 mg/kg/injection, schedule: Q04DX002 (ip), vehicle: saline with Tween-80 95 % of control | [5] 103 % of control | [6] 95 % of control

Oc1ccc(Nc2ccnc3cc(Cl)ccc23)cc1CN1CCCC1
inactive: dose: 12.5 mg/kg/injection, schedule: Q01DX009 (ip), vehicle: saline 102 % of control | dose: 12.5 mg/kg/injection, schedule: Q04DX003 (ip), vehicle: saline 101 % of control | dose: 25.0 mg/kg/injection, schedule: Q01DX009 (ip), vehicle: saline 102 % of control | dose: 25.0 mg/kg/injection, schedule: Q04DX003 (ip), vehicle: saline 103 % of control | dose: 50.0 mg/kg/injection, schedule: Q01DX009 (ip), vehicle: saline 100 % of control | dose: 50.0 mg/kg/injection, schedule: Q04DX003 (ip), vehicle: saline 97 % of control | dose: 75.0 mg/kg/injection, schedule: Q01DX009 (ip), vehicle: saline 95 % of control | dose: 115.0 mg/kg/injection, schedule: Q01DX009 (ip), vehicle: saline 102 % of control

CC(=O)Nc1ccc(S(=O)(=O)NC(C(=O)O)C(=O)O)cc1
inactive: [14] 100 % of control | [15] 103 % of control | [16] 103 % of control

O=[N+]([O-])c1ccc(/C=C\c2ccccc2)cc1
inactive: [2] 95 % of control | [11] 98 % of control | [3] 97 % of control | [12] 98 % of control | [4] 96 % of control | [13] 96 % of control

CC(C)C1CCC2(CC1)CCN(CCCN(C)C)CC2
inactive: dose: 50.0 mg/kg/injection, schedule: Q01DX001 (ip), vehicle: saline 93 % of control | [14] 113 % of control

CCOC(=O)NC(CC)CO (configuration not stated)
inactive: [2] 96 % of control | [11] 96 % of control | [3] 92 % of control | [12] 104 % of control | [4] 108 % of control | [13] 96 % of control

O=c1c(N=Nc2ccc(Cl)cc2)c(O)n(-c2ccccc2Cl)c(=S)n1-c1ccccc1
inactive: dose: 25.0 mg/kg/injection, schedule: Q01DX001 (ip), vehicle: Klucel (hydroxypropylcellulose) (HPC) 92 % of control | dose: 50.0 mg/kg/injection, schedule: Q01DX001 (ip), vehicle: Klucel (hydroxypropylcellulose) (HPC) 94 % of control | dose: 100.0 mg/kg/injection, schedule: Q01DX001 (ip), vehicle: Klucel (hydroxypropylcellulose) (HPC) 89 % of control

Cc1ccc(NC2CNC(=O)NC2=O)cc1C (configuration not stated)
inactive: dose: 100.0 mg/kg/injection, schedule: Q01DX Z (ip), vehicle: saline 91 % of control | dose: 200.0 mg/kg/injection, schedule: Q01DX Z (ip), vehicle: saline 87 % of control

C=CS(=O)(=O)CCc1ccccc1
inactive: [5] 115 % of control | [6] 102 % of control | [7] 91 % of control

O=C1CCCC(=O)c2c(O)ccc(O)c21
inactive: [14] 96 % of control | [15] 98 % of control | [16] 96 % of control

CCCN(CCC)CCCN(CCC)CCCCN(CCC)CCCN(CCC)CCC
inactive: [14] 98 % of control

Cc1ccc(S(=O)(=O)OCCCCOS(=O)(=O)c2ccc(C)cc2)cc1
inactive: [2] 99 % of control | [11] 91 % of control | [3] 89 % of control | [12] 100 % of control | [4] 100 % of control | [13] 105 % of control

COc1ccc(OC)c(NC(=O)c2cccc(N)c2)c1
inactive: [8] 111 % of control | [9] 105 % of control | [10] 103 % of control

— PubChem BioAssay AID248 (DTP/NCI, 2004)
